From the supplement of paper PMC10307832

Experiments:
Test in all cases: relative viability (nuclei count vs DMSO), 5 days (fraction); higher = more cells survive
[1] = compound: CN1C=C(C2=CC=CC=C21)/C=C\3/C4=C(C=CC=N4)NC3=O + Cc1nc(Nc2ncc(C(=O)Nc3c(C)cccc3Cl)s2)cc(N2CCN(CCO)CC2)n1 [Dasatinib] (partner 0.075 µM)
Outline: (§1)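 A single step with final 0.05% Triton X-100, 1% formaldehyde and 1 ug/ml Hoechst fixed the cells and stained nuclei 5 days after treatment. Lung cancer cell lines in 1536-well plates had been treated by pin tool the day after seeding with one drug alone or a fixed anchor-drug dose plus five library-drug doses (not always all listed) in √10 steps, and nuclei were counted on 4× images. Relative viability is the ratio of nuclei in treated wells to nuclei in vehicle wells, taken as the median of duplicate plates.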

[2] = compound: CC(=O)Nc1cccc(-n2c(=O)n(C3CC3)c(=O)c3c(Nc4ccc(I)cc4F)n(C)c(=O)c(C)c32)c1 [Trametinib] + NC(=O)Nc1cc(-c2cccc(F)c2)sc1C(=O)N[C@H]1CCCNC1 [AZD7762] (partner 0.2 µM)
Outline: as §1

[3] = compound: CC(=O)Nc1cccc(-n2c(=O)n(C3CC3)c(=O)c3c(Nc4ccc(I)cc4F)n(C)c(=O)c(C)c32)c1 [Trametinib] + COc1cc2c(Oc3ccc(NC(=O)C4(C(=O)Nc5ccc(F)cc5)CC4)cc3F)ccnc2cc1OCCCN1CCOCC1 [Foretinib] (partner 0.25 µM)
Outline: as §1

[4] = compound: CN1C=C(C2=CC=CC=C21)/C=C\3/C4=C(C=CC=N4)NC3=O + O=C(CCCCCCC(=O)Nc1ccccc1)NO [Vorinostat] (partner 1 µM)
Outline: as §1

Row | Cell Line | relative viability ([1]; first compound 0.02 µM) | relative viability ([1]; first compound 0.06325 µM) | relative viability ([1]; first compound 0.2 µM) | relative viability ([1]; first compound 0.6325 µM) | relative viability ([1]; first compound 2 µM) | relative viability ([2]; first compound 0.0025 µM) | relative viability ([2]; first compound 0.007906 µM) | relative viability ([2]; first compound 0.025 µM) | relative viability ([2]; first compound 0.07906 µM) | relative viability ([2]; first compound 0.25 µM) | relative viability ([3]; first compound 0.0025 µM) | relative viability ([3]; first compound 0.007906 µM) | relative viability ([3]; first compound 0.025 µM) | relative viability ([3]; first compound 0.07906 µM) | relative viability ([3]; first compound 0.25 µM) | relative viability ([4]; first compound 0.02 µM) | relative viability ([4]; first compound 0.06325 µM) | relative viability ([4]; first compound 0.2 µM) | relative viability ([4]; first compound 0.6325 µM) | relative viability ([4]; first compound 2 µM)
1 | NCI-H441 | 0.541 | 0.638 | 0.548 | 0.538 | 0.677 | 1.15 | 0.972 | 0.734 | 0.658 | 0.618 | 1.03 | 1.01 | 0.699 | 0.742 | 0.703 | 0.807 | 0.752 | 0.833 | 0.694 | 0.793
2 | NCI-H520 | 0.206 | 0.213 | 0.199 | 0.182 | 0.221 |  |  |  |  |  | 0.874 | 0.785 | 0.866 | 0.739 | 0.585 | 0.797 | 0.482 | 0.661 | 0.718 | 0.722
3 | CAL-12T | 0.501 | 0.302 | 0.347 | 0.285 | 0.273 | 0.642 | 0.61 | 0.619 | 0.536 | 0.483 | 0.969 | 0.893 | 0.716 | 0.499 | 0.489 | 0.652 | 0.675 | 0.703 | 0.873 | 0.679
4 | HCC-827 | 0.296 | 0.354 |  | 0.28 | 0.427 | 0.226 | 0.17 | 0.153 | 0.183 | 0.161 | 1.01 | 0.95 | 0.787 | 0.556 | 0.425 | 0.721 | 0.87 |  | 0.703 | 0.714
5 | LC-2-ad | 0.572 | 0.482 | 0.45 | 0.597 | 0.515 | 0.732 | 0.584 | 0.518 | 0.403 | 0.406 | 0.792 | 0.726 | 0.57 | 0.477 | 0.409 | 0.67 | 0.661 | 0.666 | 0.706 | 0.669
6 | NCI-H2170 | 0.442 | 0.581 | 0.525 | 0.468 | 0.597 | 0.878 | 0.84 |  | 0.748 | 0.556 | 0.973 | 0.539 | 0.968 | 0.963 | 0.87 | 0.746 | 0.762 | 0.747 | 0.614 | 0.758
7 | SW 1573 | 0.348 | 0.537 | 0.488 | 0.633 | 0.516 |  |  |  |  |  | 0.876 | 0.723 | 0.616 | 0.513 | 0.152 | 0.73 | 0.656 | 0.787 | 0.8 | 0.882
8 | SK-MES-1 | 0.271 | 0.322 | 0.279 | 0.305 | 0.353 |  |  |  |  |  | 0.913 | 0.476 | 0.638 | 0.566 | 0.347 | 1.07 | 0.995 | 0.864 | 1.07 | 0.984
9 | NCI-H1648 |  |  |  |  |  | 0.69 | 0.716 | 0.879 | 0.78 | 0.441 |  |  |  |  |  | 0.557 | 0.391 | 0.425 | 0.327 | 0.64
10 | NCI-H1793 | 0.429 | 0.341 | 0.337 | 0.353 | 0.381 | 0.44 | 0.466 | 0.252 | 0.335 | 0.264 | 0.661 | 0.349 | 0.393 | 0.256 | 0.237 | 0.774 | 0.733 | 0.522 | 0.681 | 0.704
11 | NCI-H1299 |  |  |  |  |  |  |  |  |  |  | 1.07 | 1.2 | 1.01 | 0.794 | 0.481 |  |  |  |  | 
12 | LCLC-97TM1 | 0.529 | 0.76 | 0.876 | 0.968 | 0.882 | 0.352 | 0.306 | 0.137 | 0.161 | 0.123 | 0.817 | 0.666 | 0.459 | 0.306 | 0.301 |  | 0.621 | 0.467 | 0.766 | 0.77
13 | NCI-H1915 | 0.331 | 0.295 | 0.274 | 0.338 | 0.31 | 0.702 | 0.715 | 0.405 | 0.365 | 0.218 | 1.11 | 0.781 | 0.538 | 0.596 | 0.298 | 0.502 | 0.501 | 0.513 | 0.442 | 0.493
14 | NCI-H661 | 0.892 | 0.827 | 0.626 | 0.819 | 0.853 |  |  |  |  |  | 0.941 | 1 | 0.794 | 0.751 | 0.62 | 0.853 | 0.763 | 0.835 | 0.927 | 0.775
15 | NCI-H2405 | 0.253 | 0.22 | 0.205 | 0.196 | 0.241 | 0.566 | 0.616 | 0.425 |  | 0.401 | 1.08 | 0.874 | 0.903 | 0.72 | 0.563 | 1.16 | 0.913 | 0.754 | 0.98 | 0.73
